Test results published in US20110224226A1, “COMPOSITIONS AND METHODS FOR INCREASING BLOOD PLATELET LEVELS IN HUMANS” (AKARX, Inc., priority 2006, published 2011).

How the values were obtained:
CYP1A2 = target: T1, CYP1A2 (Homo sapiens, UniProt P05177); test: inhibition of human liver cytochrome P450 CYP1A2; format: in vitro ADME; conditions: human liver cytochrome P450 isoenzyme
T1 sequence (P05177 1-516): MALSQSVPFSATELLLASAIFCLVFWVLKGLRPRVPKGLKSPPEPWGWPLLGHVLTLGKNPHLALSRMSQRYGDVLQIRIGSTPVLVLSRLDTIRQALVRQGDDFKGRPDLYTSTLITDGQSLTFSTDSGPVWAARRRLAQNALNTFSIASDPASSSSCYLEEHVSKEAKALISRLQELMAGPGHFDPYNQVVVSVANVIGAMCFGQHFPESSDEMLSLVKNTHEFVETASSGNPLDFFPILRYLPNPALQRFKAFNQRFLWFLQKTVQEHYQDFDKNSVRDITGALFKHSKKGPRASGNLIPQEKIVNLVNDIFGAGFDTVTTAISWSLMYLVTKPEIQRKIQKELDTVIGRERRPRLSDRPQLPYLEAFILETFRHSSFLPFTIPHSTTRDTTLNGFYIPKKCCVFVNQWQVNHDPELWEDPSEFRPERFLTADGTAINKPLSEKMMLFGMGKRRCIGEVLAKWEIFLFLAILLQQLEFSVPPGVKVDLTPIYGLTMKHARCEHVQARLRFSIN

[1] = pharmacokinetics after intravenous and oral administration in mice; format: in vivo; conditions: mouse, plasma
Excerpt: After a single intravenous administration of the drug of Formula I as the monomaleate salt to mice and dogs, plasma concentrations of Formula I decreased in a biphasic manner.

human c-Mpl = target: T2, human c-Mpl (Homo sapiens, UniProt P40238); test: interference with rhTPO binding to human platelets; conditions: concentrations up to 100 μM
T2 construct: endogenous in cells; host or cells: human platelets
T2 sequence (P40238 26-635): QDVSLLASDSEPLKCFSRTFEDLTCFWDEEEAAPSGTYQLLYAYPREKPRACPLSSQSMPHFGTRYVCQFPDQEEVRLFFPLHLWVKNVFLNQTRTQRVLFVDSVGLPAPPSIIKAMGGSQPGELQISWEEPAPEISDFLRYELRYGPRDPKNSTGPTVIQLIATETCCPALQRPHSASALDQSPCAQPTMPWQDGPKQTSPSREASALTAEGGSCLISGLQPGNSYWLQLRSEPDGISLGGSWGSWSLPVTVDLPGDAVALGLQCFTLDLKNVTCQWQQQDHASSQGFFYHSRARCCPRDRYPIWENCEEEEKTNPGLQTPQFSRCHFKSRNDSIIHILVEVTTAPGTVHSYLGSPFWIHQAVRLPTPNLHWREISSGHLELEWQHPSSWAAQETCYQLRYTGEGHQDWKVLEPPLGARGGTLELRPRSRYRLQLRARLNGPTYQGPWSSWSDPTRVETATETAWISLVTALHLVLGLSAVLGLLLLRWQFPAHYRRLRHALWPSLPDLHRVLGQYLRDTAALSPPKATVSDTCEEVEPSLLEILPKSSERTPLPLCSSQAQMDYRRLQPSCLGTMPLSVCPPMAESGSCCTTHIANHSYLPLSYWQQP

3A4 = 3A4 (Homo sapiens, UniProt P08684); test: inhibition of human liver cytochrome P450 3A4; format: in vitro ADME; conditions: human liver cytochrome P450 isoenzyme
[2] = 4-week repeat dose toxicity in rats; format: in vivo, rat
[3] = Example 1 single dose study: safety; format: in vivo, human; conditions: single dose up to 100 mg, healthy volunteers
Protocol: A single-center, randomized, double-blind, dose-rising study to determine the safety, pharmacokinetics, and pharmacodynamics of single doses of 1-(3-chloro-5-{[4-(4-chlorothiophen-2-yl)-5-(4-cyclohexylpiperazin-1-yl)thiazol-2-yl]carbamoyl} pyridin-2-yl)piperadine-4-carboxylic acid (Formula I) in normal healthy volunteers was performed. The starting dose of the drug of Formula I was 1 mg (expressed as free base). Successive dose cohorts received 3, 10, 20, 50, 75 and 100 mg. The drug substance in the form of the monomaleate salt was suspended in Ora-Plus® (purified water, microcrystalline cellulose, sodium carboxymethylcellulose, xanthan gum, citric acid, sodium phosphate, simethicone, potassium sorbate and methylparaben), a commercially available oral suspending vehicle manufactured by Paddock Laboratories, Inc. Minneapolis, Minn. The Ora-Plus® was diluted with purified water, USP in a 1:1 suspension before being used to suspend the drug substance powder in preparation for oral administration. Prior to administration, 30 mL of the Ora-Plus®/water vehicle was added to each bottle, shaken and then consumed by the subject for each of the 3, 10, 50 and 75 mg dose cohorts. This was followed by an additional 30 mL of vehicle that was added to the bottle as a wash solution, shaken and then consumed by the subject. […]

platelet count = test: Example 1 single dose study: pharmacodynamics (platelet count); format: in vivo, human
Protocol: A single-center, randomized, double-blind, dose-rising study to determine the safety, pharmacokinetics, and pharmacodynamics of single doses of 1-(3-chloro-5-{[4-(4-chlorothiophen-2-yl)-5-(4-cyclohexylpiperazin-1-yl)thiazol-2-yl]carbamoyl} pyridin-2-yl)piperadine-4-carboxylic acid (Formula I) in normal healthy volunteers was performed. The starting dose of the drug of Formula I was 1 mg (expressed as free base). Successive dose cohorts received 3, 10, 20, 50, 75 and 100 mg. The drug substance in the form of the monomaleate salt was suspended in Ora-Plus® (purified water, microcrystalline cellulose, sodium carboxymethylcellulose, xanthan gum, citric acid, sodium phosphate, simethicone, potassium sorbate and methylparaben), a commercially available oral suspending vehicle manufactured by Paddock Laboratories, Inc. Minneapolis, Minn. The Ora-Plus® was diluted with purified water, USP in a 1:1 suspension before being used to suspend the drug substance powder in preparation for oral administration. Prior to administration, 30 mL of the Ora-Plus®/water vehicle was added to each bottle, shaken and then consumed by the subject for each of the 3, 10, 50 and 75 mg dose cohorts. This was followed by an additional 30 mL of vehicle that was added to the bottle as a wash solution, shaken and then consumed by the subject. For the 20 mg and 100 mg dose cohorts, 60 mL of the Ora-Plus®/water vehicle was added to two (2) separate bottles containing the appropriate dose of drug (30 mL each bottle), shaken then consumed by the subjects. This was followed by an additional 60 mL of vehicle that was added as 30 ml to each bottle as a wash solution, shaken and then consumed by the subject.
A minimum of 9 subjects (male and female healthy volunteers) were enrolled in each cohort. The active group within each cohort included male and female volunteers. Three subjects per cohort received placebo. Each successive dose cohort was treated no sooner than 10 days after the previous group had received the study drug. […]

[4] = species specificity of activity; design: species or system chimpanzee and man

Sequence of 3A4 (P08684 whole entry): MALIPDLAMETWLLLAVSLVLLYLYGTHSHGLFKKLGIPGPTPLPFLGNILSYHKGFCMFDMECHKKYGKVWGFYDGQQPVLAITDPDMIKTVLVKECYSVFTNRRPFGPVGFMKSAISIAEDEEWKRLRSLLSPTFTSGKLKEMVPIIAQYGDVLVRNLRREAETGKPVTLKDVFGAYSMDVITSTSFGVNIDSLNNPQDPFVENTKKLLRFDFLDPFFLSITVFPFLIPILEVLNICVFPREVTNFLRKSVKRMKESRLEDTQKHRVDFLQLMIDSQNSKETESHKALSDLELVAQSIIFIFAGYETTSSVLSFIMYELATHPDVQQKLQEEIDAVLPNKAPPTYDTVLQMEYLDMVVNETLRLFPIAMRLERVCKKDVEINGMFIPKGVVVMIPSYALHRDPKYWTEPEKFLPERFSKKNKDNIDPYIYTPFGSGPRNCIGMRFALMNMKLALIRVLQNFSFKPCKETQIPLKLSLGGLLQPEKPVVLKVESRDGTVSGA

inhibition of CYP1A2 (CYP1A2): did not inhibit
half-life ([1]; mice, single intravenous administration as the monomaleate salt, read-out: terminal elimination half-life (t1/2) (converted)): 2.7 h
bioavailability ([1]; oral administration, read-out: absolute bioavailability): 91%
interference with rhTPO binding to human platelets (human c-Mpl): does not interfere
inhibition of CYP3A4 (3A4): did not inhibit
SMILES: O=C(Nc1nc(-c2cc(Cl)cs2)c(N2CCN(C3CCCCC3)CC2)s1)c1cnc(N2CCC(C(=O)O)CC2)c(Cl)c1 [Formula I, 1-(3-chloro-5-{[4-(4-chlorothiophen-2-yl)-5-(4-cyclohexylpiperazin-1-yl)thiazol-2-yl]carbamoyl}pyridin-2-yl)piperadine-4-carboxylic acid]
reversibility of gastric mucosa changes ([2]; rat, on drug withdrawal): resolved on drug withdrawal
CK and aldolase levels ([2]; rat, repeat dosing 4 weeks): Elevated levels of CK and aldolase
muscle degeneration/necrosis in femoral, lower thigh or multifides muscles ([2]; rat, repeat dosing 4 weeks): 1 or 2 rats per dose group
changes in the gastric mucosa ([2]; rats, repeat dosing 4 weeks, 3, 10, 30, 100 mg/kg/day): degeneration of chief cells and parietal cells
tolerability (drug-related clinical or laboratory adverse experiences) [3]: well tolerated
dose at which the PD limit (5 subjects with >50% increase in platelet count) was reached (platelet count; single dose): 100 mg
dose-concentration-response relationship for changes in platelet count (platelet count; single dose, increasing drug concentrations and exposure): linear increases in platelet counts over baseline
single dose after which statistically significant increases in platelet counts were evident (platelet count; single oral dose, healthy volunteers): ≥ 10 mg
species specificity [4]: activity only in the chimpanzee and man
